Structures can show the parent of a compound that is named as a salt.

Format in all cases: physicochemical
A short description of data set [1]: Release from pH responsive vesicles in hydrogel (Example 2). To be noted: poly(2-vinylpyridine-b-ethylene oxide) vesicles in hydrogel; buffer pH 4 to 6.5 in 0.5 pH steps. An excerpt:
The vesicles are made from the block copolymer poly(2-vinylpyridine-b-ethylene oxide) (NP2VP:29,NPEO: 15) This polymer can be made as described in Foerster et al., Langmuir, 2006, 22, 5843-5847.
(§1) The hydrogel matrix is the same as Example 1.
(§2) The vesicles are loaded with lidocaine HCl, via a phase transfer method from chloroform to water, and cleaned over a Sepharose column. The resulting vesicles formulation is mixed with the PVA-acrylamide macromer and Irgacure 2959.3 g of the hydrogel is crosslinked with UV and immersed in 5 ml buffer solution at pH 4. The 5 ml buffer is exchanged after 8-16 h with 5 ml buffer solution at 0.5 pH units higher and left for another 8-16 h. This is repeated until pH 6.5 is reached. About 80% of free lidocaine is released from the hydrogel in 8 hours. The lidocaine HCl release is measured with UV at 263 nm and compared to a standard curve.

Data set [2] is described as follows: Release of free lidocaine from the PVA-acrylamide hydrogel (Example 2). As to conditions: in 8 hours; 3 g UV-crosslinked hydrogel in 5 ml buffer; UV at 263 nm. The protocol: as §1, §2
The nature of data set [3]: Release from temperature sensitive vesicles in hydrogel (Example 4). To be noted: cooled from 40 C to room temperature, 10 ml water, 12 hours.
Experimental: The vesicles are loaded with lidocaine HCl in a buffered solution at pH 6.5 above 40 C and cleaned over a Sepharose column. The resulting vesicles are mixed into 3 g of hydrogel at a solid content of 7% at 40 C. The hydrogel is cooled to room temperature and immersed in 10 ml of water. […] The release is measured with UV at 263 nm over 12 hours.
Data set [4] can be described thus: Release from vesicles crosslinked into the hydrogel (Example 5). To be noted: buffer pH 6.5, 50 C for 24 hours or taken out of solution over night. An excerpt:
Vesicles are made from the block copolymer HO-poly(2-methyl-2-oxazoline)-b-polydimethylsiloxane-b-poly(2-methyl-2-oxazoline)-OH modified with isocyanto-ethylmetacrylate at the OH endgroups as taught in U.S. Pat. No. 5,807,944 to Hirt et al.
The hydrogel matrix is made as described in Example 1.
The vesicles are loaded with a hydrophilic lidocaine HCl and cleaned over a Sepharose column as taught above. The resulting vesicles formulation is mixed with the PVA-acrylamide macromer and Irgacure 2959.3 times 3 g of the hydrogel is crosslinked with UV and immersed in 10 ml buffer solution at pH 6.5 each. One sample is exposed to 50 C for 24 hours and left for another 24 hours. One sample is taken out of solution over night and put back into the buffer for 24 hours. Solutions are analyzed with UV for the lidocaine release and compared to the untreated solution.

Data set [5] is described as follows: Passive diffusion from vesicles and hydrogel matrix (Example 1). As to conditions: PMOXA-b-PDMS-b-PMOXA vesicles in PVA-acrylamide hydrogel; water. The protocol: Vesicles are made out of the block copolymer poly(2-methyl-2-oxazoline)-b-polydimethylsiloxane-b-poly(2-methyl-2-oxazoline). Molecular weights of the segments are poly(2-methyl-2-oxazoline): 1300, and PDMS segment: 4400. The copolymer is made as described in U.S. Pat. No. 5,807,944 to Hirt et al.
A total of 50 mg of polymer was dissolved in 250 μl of ethanol (99%). The ethanolic solution was slowly added to 5 ml of bi-distilled water containing 0.2 M carboxy-fluorescein. A minimum of 4 h of stirring was allowed. Subsequently, the vesicles were extruded through 0.45 μm and 0.22 μm filters (Millex Durapore-PVDF, Millipore) 6 times. This procedure ensures formation of unilamellar vesicles with diameters dictated by the pore size of the extrusion filters and with a more monodisperse size distribution. Chromatographic separation was achieved on a Sepharose 4B column (1×30 cm) eluted with bi-distilled water. The slightly hazy fraction contains the vesicles.
The hydrogel matrix is based on a PVA-acrylamide macromer and a UV-initiator as taught by U.S. Pat. No. 7,070,809 to Goupil et al., Example 5a. […]
3 g of the vehicle are immersed in 5 ml of water. The water is exchanged every hour for the first 8 hours and every 24 hours thereafter and the fluorescence of the supernatant is measured in order to calculate the amount of carboxy-fluorescein released from the vehicle.

As to `CCN(CC)CC(=O)Nc1c(C)cccc1C` [lidocaine HCl], the “lidocaine HCl release out of the vesicles in response to a change in pH” value in data set [1] was “released slowly with increasing pH, with an increased rate after pH 5”. Besides, the “free lidocaine released from the hydrogel” value in data set [2] is “About 80%”. Besides, in data set [3], the “release of vesicle content at room temperature” value is on record as “release their content slowly”. The “lidocaine release after shape change of the hydrogel” value in data set [4] is “ruptured the vesicles and their content is released”.

Carboxy-fluorescein: the “passive release of active agent out of the vesicles and hydrogel matrix” value in data set [5] was “slowly diffuse out of the vesicles and then be released from the hydrogel”.

The record behind these values is US20080260833A1, “Drug delivery vehicle containing vesicles in a hydrogel base” (priority 2007, published 2008).
